We go through four compounds from patent US20220249617A1, “CYCLODEXTRIN BASED INJECTABLE COFORMULATIONS OF SGLT2 INHIBITORS AND INCRETIN PEPTIDES” (MEDIMMUNE LIMITED, priority 2019, published 2022).

The term solubility denotes how much of the substance goes into solution per volume. The low end stands for little dissolved substance, the high end for much dissolved substance.

For data set [1], the target named is T1, human recombinant GLP-1 receptor (Homo sapiens, UniProt P43220).
T1 construct: expressed in transfected cells; host or cells: CHO-K1
T1 sequence (P43220 24-463): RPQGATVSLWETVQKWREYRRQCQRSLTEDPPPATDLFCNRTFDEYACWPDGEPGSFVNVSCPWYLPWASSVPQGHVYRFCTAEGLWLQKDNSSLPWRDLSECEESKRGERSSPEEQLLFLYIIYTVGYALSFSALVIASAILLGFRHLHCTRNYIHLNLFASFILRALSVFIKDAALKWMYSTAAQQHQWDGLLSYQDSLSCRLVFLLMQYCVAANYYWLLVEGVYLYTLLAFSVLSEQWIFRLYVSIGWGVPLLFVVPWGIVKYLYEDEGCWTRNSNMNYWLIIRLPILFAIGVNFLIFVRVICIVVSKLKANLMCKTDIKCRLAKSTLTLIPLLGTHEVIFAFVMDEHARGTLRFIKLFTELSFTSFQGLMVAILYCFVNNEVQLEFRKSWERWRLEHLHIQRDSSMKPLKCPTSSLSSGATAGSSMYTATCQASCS
The data set can be described thus: In vitro potency assay, cAMP response element luciferase reporter in CHO cells. The data set is classed as cell-based. The conditions noted are these: MEDI0382 in buffer, in cyclodextrin, and co-formulated with DPZ. The protocol: (§1) Briefly, cells were plated at 20,000 cells per well in 96-well white microtiter plates (Corning, USA) and incubated with serially diluted peptide samples for 4 hours prior to lysis and measurement of cAMP dependent luciferase activity using Steady-Glo luciferase substrate (Promega, USA). Plates were read on a SpectraMax Paradigm plate reader (Molecular Devices, USA), and 10-point concentration-response curves were generated in triplicate. Results were expressed as the relative potency of the test sample compared to a reference ligand by calculating the ratio of the reference and sample EC50 values from a 4-PL fit following a test for parallelism using SoftMax Pro software (Molecular Devices, USA), and the reported data was the mean of two independent assays. Curves were fitted using nonlinear regression analysis in GraphPad Prism software 6.03 (GraphPad, USA).
(§2) Although HPβCD enhances the physical stability of the peptide, the loss of alpha-helix could have a dramatic impact on the potency of the peptide. […] The in vitro potency was assessed on CHO cells over-expressing human recombinant GLP-1 or glucagon receptors, and the activity was reported as EC50 values after measurement of cAMP accumulation.
In general terms: A reporter such as luciferase makes a cellular process visible.

Data set [2] concerns the target T2, human recombinant glucagon receptor (Homo sapiens, UniProt P47871).
T2 construct: expressed in transfected cells; host or cells: CHO-K1
The data set is described as above. The data set is classed as cell-based. The settings on record: MEDI0382 in buffer, in cyclodextrin, and co-formulated with DPZ. The protocol:
as §1, §2

The subject of data set [3] is DIO mice. The conditions noted are these: repeat injections; cited from earlier work.
Data set [4] deals with non-human primates. The settings on record: repeat injections; cited from earlier work.
Data set [5] relates to overweight and obese patients with type 2 diabetes. The conditions noted are these: cited from earlier work.
The nature of data set [6]: physchem. The protocol: Various HPβCD (Kleptose HPB, Roquette) solutions at increasing concentrations were prepared in water ranging from 5% to 20% (w/v). Briefly, HPβCD was weighed in a volumetric flask and purified water was added up to 80% (v/v) of final volume. The flask was mixed until full solubilisation and made up to final volume with purified water. […] Each concentration was done in duplicate. The formulations were left under magnetic stirring for 21 h 40 min. Each sample was then transferred to a 1.5 mL eppendorf and centrifuged at 13,000 rpm for 10 min. Then 200 μL was taken from the supernatant and centrifuged again in a 1.5 mL eppendorf for 30 min at 13,000 rpm. The samples were finally diluted in buffer A (95% HPLC water/5% ACN+0.03% TFA), and the concentration was measured by UPLC against a calibration curve validated with quality controls.

For data set [7] the following is noted: target 17 mg/mL DPZ; formulation containing cyclodextrin (HPβCD); visual observation. How it is done: The appropriate aqueous vehicle was added onto the powder to achieve a final concentration of 17 mg/mL, vortex mixed, and sonicated. The pass/fail criteria for the formulation was determined through visual observation.
The screening assay was therefore designed to target a concentration of 17 mg/mL, corresponding to a […] dose in 600 μL dose volume. […] The excipients screened included PEG 400, PG, DSPE-PEG 2000, Glycerol, Kolliphor 188, HPβCD, and BSA. […] Only the formulation containing cyclodextrin was successful and therefore taken forward for further evaluation as a potential co-formulation vehicle.

Data set [8] in a line: Pharmacokinetic study after subcutaneous injection in rats. It is filed as in vivo. The settings on record: DPZ 0.5 mg/kg.
Procedure: For the PK study, MEDI0382 alone in buffer was prepared at 0.5 mg/mL in 50 mM Na Phosphate buffer pH 7.8+1.85% propylene glycol (PG) (J. T. Baker).
The cyclodextrin vehicle used for the PK study was 7% w/v HPβCD in 50 mM Na Phosphate buffer pH 7.8+0.5% v PG. The PG was added to adjust the osmolarity of the formulations to 260 mOsm. […] In parallel, MEDT0382 alone in buffer was prepared at 0.5 mg/mL in 50 mM NaP buffer pH 7.8+1.85% v/v PG. The formulations were then diluted to 1/10 with their corresponding vehicle.
Three animals per group were included, and serial blood sampling for PK evaluation occurred at 0.5, 1, 2, 4, 7, and 24 hr post dose.
The conditions of data set [9]: oral administration; cited from earlier work.
The conditions of data set [10]: cited from earlier work.

Values after ≈ are worked out from the molar mass of the structure shown.

T2 sequence (P47871 26-477): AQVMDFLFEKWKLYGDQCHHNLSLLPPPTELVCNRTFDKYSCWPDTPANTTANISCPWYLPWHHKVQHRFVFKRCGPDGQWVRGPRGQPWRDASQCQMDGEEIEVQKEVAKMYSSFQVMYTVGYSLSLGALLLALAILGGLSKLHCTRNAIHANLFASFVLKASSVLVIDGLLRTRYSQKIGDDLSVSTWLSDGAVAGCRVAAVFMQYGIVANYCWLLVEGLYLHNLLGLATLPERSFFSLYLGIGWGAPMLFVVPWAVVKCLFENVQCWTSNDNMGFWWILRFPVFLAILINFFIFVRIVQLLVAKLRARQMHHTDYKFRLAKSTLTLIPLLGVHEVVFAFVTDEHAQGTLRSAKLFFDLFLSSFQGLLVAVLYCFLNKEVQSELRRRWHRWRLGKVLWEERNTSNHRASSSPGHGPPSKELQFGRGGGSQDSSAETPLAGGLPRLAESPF

Take `CCCCCCCCCCCCCCCC(=O)N[C@@H](CCC(=O)NCCCC[C@H](NC(=O)[C@H](CC(=O)O)NC(=O)[C@H](CO)NC(=O)[C@@H](NC(=O)[C@H](Cc1ccccc1)NC(=O)[C@@H](NC(=O)CNC(=O)[C@H](CCC(N)=O)NC(=O)[C@H](CO)NC(=O)[C@@H](N)Cc1c[nH]cn1)[C@@H](C)O)[C@@H](C)O)C(=O)N[C@@H](CO)C(=O)N[C@@H](CCC(=O)O)C(=O)N[C@@H](Cc1ccc(O)cc1)C(=O)N[C@@H](CC(C)C)C(=O)N[C@@H](CC(=O)O)C(=O)N[C@@H](CO)C(=O)N[C@@H](CCC(=O)O)C(=O)N[C@@H](CCCNC(=N)N)C(=O)N[C@@H](C)C(=O)N[C@@H](CCCNC(=N)N)C(=O)N[C@@H](CC(=O)O)C(=O)N[C@@H](Cc1ccccc1)C(=O)N[C@H](C(=O)N[C@@H](C)C(=O)N[C@@H](Cc1c[nH]c2ccccc12)C(=O)N[C@@H](CC(C)C)C(=O)N[C@@H](CCC(=O)O)C(=O)N[C@@H](C)C(=O)NCC(=O)NCC(=O)O)C(C)C)C(=O)O` [MEDI0382]: the “EC50 (cAMP accumulation), change between formulations” value in data set [1] and in [2] was “no change of EC50” in each case. The “effect on weight and glucose” value is “marked weight loss and robust glucose control” in data set [3]; “marked weight loss and robust glucose control” in [4]. Further, the clinical efficacy result in data set [5] is “glucose, weight and liver fat lowering efficacy”.

For `OC[C@H]1O[C@@H](c2ccc(Cl)c(Cc3ccc(O[C@H]4CCOC4)cc3)c2)[C@H](O)[C@@H](O)[C@@H]1O` [EPZ, empagliflozin], the “solubility change with increasing HPβCD concentration” value in data set [6] is listed as “linear solubility increase”.

As for `CCOc1ccc(Cc2cc([C@@H]3O[C@H](CO)[C@@H](O)[C@H](O)[C@H]3O)ccc2Cl)cc1` [DPZ, dapagliflozin], in [7], the “Solubility screen result (pass/fail)” value is listed as “successful”. Further, in [6], the “amount of HPβCD required to increase the solubility up to 17 mg/mL” value is reported as 5.5 % (w/v), the “solubility change with increasing HPβCD concentration” value is “linearly increased” and the “stoichiometry of inclusion complex (phase solubility)” value is 1:1. Also, the concentration in solution in data set [6] (water, thermodynamic from solid) (solubility at 21.67 h) was 1600 µg/mL (≈ 3.91 mM). Besides, in [8], the “PK of DPZ in the presence of MEDI0382” value is “unchanged”. In addition, the absolute bioavailability in [9] is 78%.

For glucagon, in data set [10], the “pKa of N-terminal His alpha-amino group” value is 7.6 and the “pKa of N-terminal His imidazole group” value is 7.4.
